Results as given in US8765908B2, “Compositions for improving bone mass” (The UAB Research Foundation, priority 2010, dated 2014).
“Also recorded” adds a separate entry of the source.

What was measured:
RYBP = assay: Western blot of RYBP expression in retrovirally infected BMMs; type: cell-based, mouse; conditions: BMMs infected with retrovirus expressing siRNA; anti-RYBP Western blot
Protocol: Western blot analysis was performed as previously described (Xu et al., 2006; Liu et al., 2004). RAW264.7 cells cultured in DMEM containing 10% HI-FBS and penicillin/streptomycin were treated with RANKL (100 ng/ml) for various times before being lysed for Western blot analysis with anti-RYBP antibody from Abcam Inc (Cambridge, Mass.). Primary BMMs were normally cultured in α-MEM containing 10% HI-FBS and penicillin/streptomycin in the presence of M-CSF (44 ng/ml). Uninfected BMMs or BMMs infected with retrovirus encoding siRNA and/or tagged-RYBP were cultured in the presence of M-CSF (44 ng/ml) with or without RANKL (100 ng/ml) for various times and then lysed for Western blot analysis. For Western blot analysis of IP complex, all 35 μl of the eluted proteins from each IP assay was loaded for Western blot analysis with anti-HA antibody (Clontech Laboratories, Inc), anti-Myc antibody (Clontech Laboratories, Inc), anti-RYBP (Abcam Inc) antibody and anti-β-actin antibody (Santa Cruz Biotechnology).
293GPG cells were cultured in DMEM with 10% HI-FBS supplemented with tetracycline, puromycin, G418 and penicillin/streptomycin as previously described {2222). Plat-E cells were cultured in DMEM with 10% HI-FBS supplemented with puromycin, blasticidin and penicillin/streptomycin as previously described {Morita, 2000 3155/id}. […]

primary BMMs = assay: In vitro osteoclastogenesis assay (TRAP staining); type: cell-based, mouse; conditions: TRAP stain
Protocol: Primary BMMs were cultured in 24-well tissue culture plates (5×10^4 cells/well) with a-MEM containing 10% heat-inactivated FBS in the presence of 0.02 volume of culture supernatant of M-CSF-producing cells (final M-CSF concentration 44 ng/ml) (Takeshita et al., 2000) and 100 ng of GST-RANKL (Lam et al., 2000). […]
293GPG cells were cultured in DMEM with 10% HI-FBS supplemented with tetracycline, puromycin, G418 and penicillin/streptomycin as previously described {2222). Plat-E cells were cultured in DMEM with 10% HI-FBS supplemented with puromycin, blasticidin and penicillin/streptomycin as previously described {Morita, 2000 3155/id}. The retroviral vectors were transiently transfected into 293GPG cells or Plat-E cells using Lipofectamine Plus Reagent (Invitrogen). Virus supernatant was collected at 48, 72 and 96 h after transfection. Cells were then infected with virus for 24 hours in the presence of M-CSF (220 ng/ml) and 8 μg/ml polybrene. Cells were further cultured in the presence of M-CSF (220 ng/ml) and 2 μg/ml puromycin for selection and expansion of transduced cells. Selected cells were subsequently used for various studies.
A scrambled siRNA sequence was designed to use as control (FIG. 3A). BMMs were uninfected or infected with retrovirus expressing scrambled RNA or RYBP siRNA. […]

[1] = target: T1, 49-aa RANK segment (residues 498-546) containing the IVVY motif (Mus musculus, UniProt O35305); assay: Two-hybrid screen of osteoclast precursor cDNA library; type: binding; conditions: yeast AH109, medium stringency
T1 construct: expressed in transfected cells; host or cells: yeast strain AH109
T1 sequence (O35305 498-546): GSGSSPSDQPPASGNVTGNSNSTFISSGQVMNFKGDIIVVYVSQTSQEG
From the text: An osteoclast precursor cDNA library was constructed using CloneMiner™ cDNA Library Construction System from Invitrogen (Carlsbad, Calif.). Briefly, mRNA was isolated from mouse primary BMMs and used as template for cDNA synthesis. Synthesized cDNA was size fractionated by column chromatography and the desired size of cDNA (>500 bp) was pooled and cloned into pDONOR™222 vector with BP Clonase™ to make Osteoclast Precursor cDNA Entry Library. pGBKT7 AD Vector of MATCHMAKER Two-Hybrid System 3 (Invitrogen) was converted to a Gateway® destination vector using Gateway® Vector Conversion System (Invitrogen). The whole set of cDNA clones was then transferred from the Osteoclast Precursor cDNA Entry Library into the modified pGBKT7 AD Vector to prepare an Osteoclast Precursor Two-Hybrid cDNA Library.
A 49-aa RANK segment (residues 498-546) containing the IVVY (SEQ ID NO: 4) motif (residues 535-538) was used as bait in the two-hybrid screening. A mouse cDNA region encoding this 49-aa RANK fragment was cloned in frame into pGBKT7 DNA-BD Vector of the MATCHMAKER Two-Hybrid System 3 (Invitrogen). The resulting plasmid was named as pGBKT7 DNA-BD-RANK. […]

RYBP siRNA: retrovirally expressed siRNA targeting the RYBP mRNA region encoding DPPSEA (AGCUUCACUAGGAGGAUCU)
RYBP expression (RYBP): significantly suppressed RYBP expression; also recorded: dramatically knocked down endogenous RYBP expression
osteoclastogenesis (primary BMMs; infected BMMs treated with M-CSF (44 ng/ml) and RANKL (100 ng/ml) for 4 days): inhibited osteoclastogenesis

B1: RYBP-HA: WT RYBP with HA tag at C-terminus, siRNA target region silently mutated (protein, UniProt Q8N488 1-228, looked up)
RING1 and YY1-binding protein: MTMGDKKSPTRPKRQAKPAADEGFWDCSVCTFRNSAEAFKCSICDVRKGTSTRKPRINSQLVAQQVAQQYATPPPPKKEKKEKVEKQDKEKPEKDKEISPSVTKKNTNKKTKPKSDILKDPPSEANSIQSANATTKTSETNHTSRPRLKNVDRSTAQQLAVTVGNVTVIITDFKEKTRSSSTSSSTVTSSAGSEQQNQSSSGSESTDKGSSRSSTPKGDMSAVNDESF
modifications: C-terminal HA tag
notes: WT RYBP with HA tag at C-terminus, siRNA target region silently mutated
rescue of osteoclastogenesis (primary BMMs; BMMs co-infected with RYBP siRNA retrovirus, M-CSF and RANKL 4 days): effectively rescued osteoclastogenesis

B2: RYBP: RING1A and YY1 binding protein, amino acid sequence SEQ ID NO:2 (protein, listed as Mus sp.)
chain: MTMGDKKSPTRPKRQAKPAADEGFWDCSVCTFRNSAEAFKCSICDVRKGTSTRKPRINSQLVAQQVAQQYATPPPPKKEKKEKVEKPDKEKPEKDKDISPSVTKKNTNKKTKPKSDILKDPPSEANSIQSANATTKTSETNHTSRPRLKNVDRSTAQQLAVTVGNVTVIITDFKEKTRSSSTSSSTVTSSAGSEQQNQSSSGSESTDKGSSRSSTPKGDMSAVNDESF
affinity for the bait (time a clone takes to become blue) [1]: highest affinity for the bait
